From patent publication US5767126A, “Alzheimer's disease treatment with tacrine metabolites” (priority 1991, dated 1998)

Biological target: T1, acetylcholinesterase (Homo sapiens, UniProt P22303)
T1 sequence (P22303 32-614): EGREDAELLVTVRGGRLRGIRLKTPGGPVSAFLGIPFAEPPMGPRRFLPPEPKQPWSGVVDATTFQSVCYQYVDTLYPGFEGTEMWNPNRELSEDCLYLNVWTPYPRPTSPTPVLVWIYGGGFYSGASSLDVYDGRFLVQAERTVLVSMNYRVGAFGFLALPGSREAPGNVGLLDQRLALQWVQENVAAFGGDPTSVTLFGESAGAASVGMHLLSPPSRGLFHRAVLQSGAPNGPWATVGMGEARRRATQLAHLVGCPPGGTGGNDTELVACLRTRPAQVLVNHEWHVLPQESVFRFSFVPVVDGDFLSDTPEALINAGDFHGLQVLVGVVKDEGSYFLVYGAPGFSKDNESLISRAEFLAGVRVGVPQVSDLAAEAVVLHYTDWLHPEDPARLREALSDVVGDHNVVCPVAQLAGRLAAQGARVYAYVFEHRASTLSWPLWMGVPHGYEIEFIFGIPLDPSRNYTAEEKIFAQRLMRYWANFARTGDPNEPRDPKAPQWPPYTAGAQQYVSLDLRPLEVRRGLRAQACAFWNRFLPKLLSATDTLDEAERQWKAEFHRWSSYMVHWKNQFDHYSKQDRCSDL
Assay: Acetylcholinesterase inhibition, photometric method of Ellman
Format: biochemical
Conditions: pI is a logarithmic measure of capacity to prevent the action of acetylcholinesterase, read-out: Cholinesterase inhibition pI (converted)
In the case of `Nc1c2c(nc3ccccc13)C(O)C(O)C(O)C2O` (stereo not drawn) [9-amino-1,2,3,4-tetrahydroacridin 1,2,3,4-tetraol], the IC50 is reported as 158 nM.
Work on `Nc1c2c(nc3ccccc13)CCC(O)C2O` (stereo not drawn) [9-amino-1,2,3,4-tetrahydroacridin-1,2-diol] yielded an IC50 of 1260 nM.
`Nc1c2c(nc3ccccc13)C(O)C(O)C(O)C2` (stereo not drawn) [9-amino-1,2,3,4-tetrahydroacridin-2,3,4-triol] gave an IC50 of 126 nM.
`Nc1c2c(nc3ccccc13)C(O)C(O)CC2` (stereo not drawn) [9-amino-1,2,3,4-tetrahydroacridin-3,4-diol] gave an IC50 of 200 nM.
Work on `Nc1c2c(nc3ccccc13)C(=O)CC(O)C2O` (stereo not drawn) [9-amino-1,2-dihydroacridin-1,2-diol 4(3H)-one] yielded an IC50 of 501 nM.
In the case of `Nc1c2c(nc3ccccc13)C=CC(O)C2O` (stereo not drawn) [9-amino-1,2-dihydroacridin-1,2-diol], the IC50 is reported as 631 nM.
Work on `Nc1c2ccccc2nc2c(O)ccc(O)c12` [9-amino-1,4-dihydroxyacridine] yielded an IC50 of 316 nM.
Compound `Nc1c2ccccc2nc2c(O)cc(O)cc12` [9-amino-2,4-dihydroxyacridine] has an IC50 of 158 nM.

Biological target: T1, acetylcholinesterase
Assay: not given
Conditions: figure obtained from the study by P. N. Kaul (J. Pharm. Pharmacol. 1962); cited from earlier work
In the case of `Nc1ccnc2ccccc12` [4-aminoquinoline], the “Cholinesterase inhibition pI” value is listed as 4.3.
